Assay results from patent publication US9155729B2, “Thiazolidinedione analogues” (Metabolic Solutions Development Company, LLC, priority 2006, dated 2015).
Marks after values point to notes of the source that are not given here.

Experiments:
Diabetic KKAy mice [1] = test: Glucose and insulin in diabetic KKAy mice dosed 7 days with compound 1 or rosiglitazone; type: in vivo; settings: 20 mg rosiglitazone or 100 mg/kg compound 1, fasting, 8th day, mean, 8 mice/group
Description: (§1) KKAy mice were dosed for 7 days with 20 mg rosigltiazone (positive control) and 100 mg/kg of compound 1 in suspension (1% sodium methyl carboxymethyl cellulose/0.01% Tween 80). On the 8th day, fasting, glucose, and insulin were measured, see Table D. The liver was isolated was used to measure hepatic mRNA for aP2, a biomarker for PPARγ activation in vivo. […] Data are mean and (SEM) for 8 mice/group.

Diabetic KKAy mice [2] = test: Glucose, insulin and triglyceride in diabetic KKAy mice, 4 days oral dosing; type: in vivo; settings: 93 mg/kg orally for 4 days, fasted, blood approx. 18 hours after last dose, mean and SEM, N=6-12
Description: The insulin sensitizing and antidiabetic pharmacology are measured in the KKA^Y mice as previously reported [Hofmann, C., Lomez, K., and Colca, J. R. (1991). Glucose transport deficiency corrected by treatment with the oral anti-hyperglycemic agent Pioglitazone. Endocrinology, 129:1915-1925.]. Compounds are formulated in 1% sodium carboxy methylcellulose, and 0.01% tween 20 and dosed daily by oral gavage.
Compounds were formulated by suspension and orally dosed to KKAy mice at 93 mg/kg for 4 days. The compounds were first dissolved in DMSO and then placed into aqueous suspension containing 7-10% DMSO, 1% sodium methylcarboxycellulose, and 0.01% Tween 20. On the fifth day, the mice were fasted and blood samples were obtained approximately 18 hours after the last dose. The parameters were measured by standard assay methods. Data are mean and SEM N=6-12 mice.

aP2 = test: Hepatic mRNA for aP2, biomarker for PPARγ activation in vivo, KKAy mice
Description: as §1

PPARγ = target: T1, PPARγ (Homo sapiens, UniProt P37231); test: Commercial PPARγ binding assay (Invitrogen, PPAR-LBD/Fluormone PPAR Green complex); settings: for PPARγ binding signal (fluorescence polarization, Fluormone PPAR Green displacement): mean of three experiments
T1 construct: purchased Invitrogen Corporation, Carlsbad, Calif
T1 sequence (P37231 238-503 limits assumed): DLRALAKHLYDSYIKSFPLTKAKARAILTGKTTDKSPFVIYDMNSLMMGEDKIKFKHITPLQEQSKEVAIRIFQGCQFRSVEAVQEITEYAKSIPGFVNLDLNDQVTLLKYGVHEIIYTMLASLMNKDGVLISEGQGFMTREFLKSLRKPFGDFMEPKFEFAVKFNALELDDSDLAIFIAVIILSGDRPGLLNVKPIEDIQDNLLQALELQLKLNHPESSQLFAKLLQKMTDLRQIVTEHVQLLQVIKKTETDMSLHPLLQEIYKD
Description: The ability of several exemplary compounds of the present invention, shown in Table A, to bind to PPARγ was measured using a commercial binding assay (Invitrogen Corporation, Carlsbad, Calif.) that measures the test compounds ability to bind with PPAR-LBD/Fluormone PPAR Green complex. These assays were performed on three occasions with each assay using four separate wells (quadruplicate) at each concentration of tested compound. The data are mean and SEM of the values obtained from the three experiments. […] Compounds were added at the concentrations shown, which range from 0.1-100 micromolar.

- PPARγ binding signal (fluorescence polarization, Fluormone PPAR Green displacement) (PPARγ; 1 μM compound): 223
- PPARγ binding signal (fluorescence polarization, Fluormone PPAR Green displacement) (PPARγ; 3 μM compound): 228
- PPARγ binding signal (fluorescence polarization, Fluormone PPAR Green displacement) (PPARγ; 10 μM compound): 207
- PPARγ binding signal (fluorescence polarization, Fluormone PPAR Green displacement) (PPARγ; 50 μM compound): 174
- PPARγ binding signal (fluorescence polarization, Fluormone PPAR Green displacement) (PPARγ; 100 μM compound): 170
- PPARγ binding signal (fluorescence polarization, Fluormone PPAR Green displacement) (PPARγ; .1 μM compound): 227
- PPARγ binding signal (fluorescence polarization, Fluormone PPAR Green displacement) (PPARγ; .3 μM compound): 232
- Binding to PPARγ (in words) (PPARγ; referring to FIG. 1 and Table B): particularly poor binders
Compound: CCc1ccc(C(=O)COc2ccc(CC3SC(=O)NC3=O)cc2)nc1 (stereo not drawn) [Compound 1]
- Glucose (Diabetic KKAy mice [1]): 291 mg/dL
- Insulin (Diabetic KKAy mice [1]): 1.9 ng/mL
- Glucose (Diabetic KKAy mice [2]): 402 +/− 25* mg/dl
- Insulin (Diabetic KKAy mice [2]): 7.6 +/− 1.9* ng/ml
- Triglycerides (Diabetic KKAy mice [2]): 115 +/− 18* mg/dl
- aP2 (relative expression in liver) (aP2; KKAy mice dosed 7 days, 20 mg rosiglitazone or 100 mg/kg compound 1, hepatic mRNA, mean, 8 mice/group): 5.7
- Activation of PPARγ in vivo as compared to the positive control (in words) (aP2; KKAy mice, hepatic aP2 mRNA, 100 mg/kg for 7 days): little activation of PPARγ
